The text below walks through data of patent publication US20180318199A1, “Pharmaceutical Composition Having Anti-Aging Properties against High-Glucose” (TAIWAN LEADER BIOTECH CORP., priority 2017, published 2018).

The subject of one experiment is SIRT-1. Put plainly: Immunoblotting of SIRT-1 and phos-SIRT-1 in HUVECs. In kind it is cell-based, human. The conditions noted are these: ANM or RES + HG. The protocol:
To determine whether ANM regulates HUVEC senescence through a SIRT-1-mediated pathway, protein expression levels of SIRT-1 are examined. In FIG. 9E, protein expression levels of SIRT-1 and phos-SIRT-1 are monitored by immunoblotting.
(§1) Cells are lysed by either RIPA lysis buffer or nuclear and cytoplasmic extraction reagents (Thermo Fisher Scientific). Protein concentrations are determined by Bio-Rad protein assay reagent (Bio-Rad Laboratories, Hercules, Calif.). Equal amounts of protein samples (60 μg) are separated by 7-12% SDS-PAGE and the separated proteins are transferred onto polyvinylidene […] (PVDC) membrane overnight. The transferred protein membranes are blocked with 5% non-fat dried milk for 30 min, followed by incubation with specific primary antibodies overnight, and either horseradish peroxidase-conjugated goat anti-rabbit or anti-mouse antibodies for 2 h. The blots are detected using VL Chemi-Smart 3000 (Viogene Biotek, Sunnyvale, Calif.) with the enhanced chemiluminescence (ECL) western blotting reagent (Millipore, Billerica, Mass.).

The subject of experiment [1] is SIRT-1, SIRT-3 and SIRT-6. The experiment is described as follows: RT-PCR/Q-PCR of SIRT genes in HNDFs. In kind it is cell-based, human. As to conditions: 72 h. The text has this: As shown in the figures, to determine whether ANM regulates HNDF senescence through a SIRT-1-mediated pathway, expression levels of SIRT genes SIRT-1, SIRT-3 and SIRT-6 are is examined.
Total RNA is extracted and subjected to Q-PCR analysis to monitor SIRT-1, SIRT-3 and SIRT-6 expression. Relative mRNA levels are normalized by β-actin mRNA. Previous studies have shown that exposure of endothelial cells to HG rapidly decreases levels of expression of SIRT genes.
Total RNA is extracted from cultured HNDFs using Trizol Reagent (Thermo Fisher Scientific). Q-PCR analysis is performed using Applied Biosystems detection instruments and software. Forward and reverse primers (10 μM), and the working solution SYBR green, is used as a PCR master mix, under the following conditions: 96° C. for 3 minutes followed by 40 cycles at 96° C. for 1 minute, 50° C. for 30 seconds and 72° C. for 90 seconds. GAPDH is used as an internal standard to control for variability in amplification because of differences in starting mRNA concentrations. The copy number of each transcript is calculated as the relative copy number normalized by GAPDH copy number.

A further experiment has as its system SIRT-1, SIRT-3, SIRT-6. Put plainly: Western blot of SIRT proteins and phos-SIRT-1 in HNDFs. In kind it is cell-based, human. The conditions noted are these: 72 h. The protocol:
Total cell lysate is extracted and subjected to western blot analysis to monitor SIRT-1, SIRT-3, SIRT-6 protein levels.
The protein expression levels of SIRT-1, SIRT-6, p21^CIP1, SMP30, p53, FoxO and acetylation of p53 and FoxO1 are determined by western blot analysis.
To further understand the regulation of SIRT-1 by ANM, the effect of ANM on SIRT-1 activation and protein stability is examined under hyperglycemic conditions. In FIG. 7I, cells are incubated with JNK/SAPK or p38 MAPK inhibitors SP600125 (SP, 30 μM) and SB203580 (SB, 30 μM) in the presence of HG for 72 h. The protein expression levels of phos-SIRT-1 and SIRT-1 are determined by western blotting. Results are expressed as mean±S.E.M of three independent experiments. Statistical significance is set at ^ϕP<0.05 as compared to NG vs. HG and *P<0.05 as compared to HG vs. samples. Previous studies have shown that hyperphosphorylation of SIRT-1 at serine 47 (Ser47) is correlated with enhanced endothelial senescence. In addition, persistent activation of JNK1/2 by multiple factors including hyperglycemia induces extensive SIRT-1 proteasome degradation followed by phosphorylation at Ser47. […] Therefore, it is hypothesized that ANM-mediated suppression of JNK1/2 and p38 MAPK activation may have a functional role in the stability of SIRT-1 protein.
as §1

In another experiment the test system is wild-type C. elegans. The experiment is described as follows: C. elegans lifespan assay. The experiment is classed as in vivo, Caenorhabditis elegans. The protocol: It has been well documented that high glucose levels decrease the life span of C. elegans by increasing ROS formation and advance glycation end-product modification of mitochondrial proteins. Therefore, it is further investigated whether ANM has a protective effect against hyperglycemia-induced oxidative stress as well as anti-aging effects. Worms are incubated with high glucose (50 mM) with or without ANM […], and controlled for life span evaluation. In FIG. 8B, effect of ANM on the life span of C. elegans under hyperglycemic condition is examined. Age synchronized L1 larvae are transfected to NGM plates which contain HG (50 mM) with or without ANM (10 μM) and worms are developed to adulthood. The survival rate is scored everyday and is expressed as a percentage of survival. […] Results are expressed as mean±S.E.M of three independent experiments. Statistical significance is set at ^ϕP<0.05 as compared to control vs. HG, *P<0.05 as compared to HG vs. HG+sample and ̂P<0.05 as compared to control vs. samples.
Control worms are treated with 0.01% DMSO. All worms are kept 20° C. to develop adulthood. After 6 days, worms are transferred to plates containing glucose are applicable. Surviving and dead animals are counted daily (starting from the first day of adulthood) until all worms had died. […] Worms suffering from internal hatch (a defect in egg-laying) and those that crawled off the NGM plate are not included in the life-span assay. During the reproductive period, adult worms are transferred to fresh NGM plates every day during the progeny production period and then every other day thereafter. Life span assay result is obtained from three independent assays.

Take `C=C(CCC(C)C1CCC2C3=C(C(=O)C(O)C21C)C1(C)CCC(O)C(C)C1CC3)C(C)C(=O)O` (stereo not drawn) [ANM, antcin M]: in the experiment with SIRT-1, the “HG-induced SIRT-1 phosphorylation at Ser47 in HUVECs” value is given as “significantly blocks” and the “SIRT-1 expression in HUVECs under HG” value is on record as “significantly rescues”. Moreover, the “SIRT-1 and SIRT-6 mRNA, HG-induced depletion” value in experiment [1] (ANM 10 μM + HG, Q-PCR) is reported as “rescues”. Moreover, the “SIRT-1, SIRT-3 and SIRT-6 levels (RT-PCR)” value in experiment [1] (ANM 10 μM, no HG, vs control) was “significantly increased”. For the same molecule, the “HG-induced reduction in SIRT-1, SIRT-3 and SIRT-6 proteins” value in the experiment with SIRT-1, SIRT-3, SIRT-6 (ANM 10 μM + HG 30 mM) is “significantly prevented”. In addition, the “SIRT-1 and SIRT-6 expression, control siRNA cells” value in the experiment on SIRT-1, SIRT-3, SIRT-6 (ANM 10 μM + HG) is “significantly increases”. In addition, the “HG-induced SIRT-1 phosphorylation at Ser47” value in the experiment with SIRT-1, SIRT-3, SIRT-6 (ANM or RES + HG) is reported as “significantly attenuates”. Besides, in the experiment on wild-type C. elegans (ANM 10 μM or RES 438 μM vs control), the “life span of C. elegans under normal condition” value is recorded as “significantly (P<0.026) prolongs”. For the same molecule, the “life span of C. elegans under hyperglycemic condition” value with wild-type C. elegans (HG 50 mM with ANM 10 μM vs HG alone) is on record as “significant (P<0.0001) increase”.
